Earlier results, collected in patent US4130647A, “Methods for treating congestive heart failure and ischemic heart disease” (priority 1977, dated 1978).

System: patients with congestive heart failure
Conditions: cited from earlier work

For `NNc1nncc2ccccc12` [hydralazine], the “left ventricular filling pressures” value (heart failure) is given as “does not usually lower left ventricular filling pressures”, the side effects (in vivo) is given as “serologic side effects and leading to sodium retention” and the Pulmonary Wedge Pressure (left ventricular failure) is given as “only slightly reduces pulmonary wedge pressure”. The “right atrial pressure and forearm veins” value (left ventricular failure) was “does not reduce right atrial pressure or dilate forearm veins”.
For `O=[N+]([O-])OCC(CO[N+](=O)[O-])O[N+](=O)[O-]` [nitroglycerin], the cardiac output (when left ventricular filling pressures fall below the upper limits of normal) is listed as “A similar phenomenon is observed”.
